Source: ChEMBL document CHEMBL3862018, “Structure-activity of antifungal compounds inspired by aminobisabolenes from the sponge Halichondria sp” (2016)
≈ marks a conversion by molar mass, not a printed value.

How the values were obtained:
[1] = Antifungal activity against Candida krusei after 24 hrs by microbroth dilution method; assay type: functional; details: Pichia kudriavzevii
[2] = test system: Cryptococcus gattii species complex; experiment: Antifungal activity against Cryptococcus gattii after 24 hrs by microbroth dilution method; assay type: functional, Cryptococcus bacillisporus
[3] = Antifungal activity against Candida glabrata after 24 hrs by microbroth dilution method; assay type: functional; details: Nakaseomyces glabratus
Candida albicans = experiment: Antifungal activity against Candida albicans ATCC 14503 after 24 hrs by microbroth dilution method; assay type: functional; details: ATCC 14503, 24 h
[4] = Antifungal activity against Trichophyton rubrum MRL666 after 72 hrs by CLSI M38-A method; assay type: functional

Row | SMILES | MIC90 [1] [µM] | MIC90 [2] [µM] | MIC90 [3] [µM] | MIC90 (Candida albicans) [µM] | MIC90 [4] [µM]
1 | CC(C)CCC[C@](C)(N)C1CCC(C)CC1 (some centres not stated) | 14 (≈ 3.16 µg/mL) | 18 (≈ 4.06 µg/mL) | 18 (≈ 4.06 µg/mL) | 50 (≈ 11.3 µg/mL) | 
2 | CC(C)=CCC[C@](C)(N)[C@H]1CC=C(C)CC1 | 36 (≈ 7.97 µg/mL) | 53 (≈ 11.7 µg/mL) | 38 (≈ 8.41 µg/mL) | 72 (≈ 15.9 µg/mL) | 17 (≈ 3.76 µg/mL)
3 | CC(C)CCC[C@@](C)(C1CCC(C)CC1)N(C)C (some centres not stated) | 58 (≈ 14.7 µg/mL) | 31 (≈ 7.86 µg/mL) | 139 (≈ 35.2 µg/mL) | 142 (≈ 36 µg/mL) | 
4 | CC(C)=CCC[C@@](C)([C@H]1CC=C(C)CC1)N(C)Cc1cccc2ccccc12 |  | > 250 |  | > 250 | > 250
5 | CC(C)=CCC[C@](C)(NCc1cccc2ccccc12)[C@H]1CC=C(C)CC1 |  | > 250 |  | > 250 | 70 (≈ 25.3 µg/mL)

Stronger by MIC90 [2], values ahead:

Row | MIC90 [1] [µM] | MIC90 [2] [µM] | MIC90 [3] [µM] | MIC90 (Candida albicans) [µM] | MIC90 [4] [µM] | SMILES
6 | > 250 | 5.3 (≈ 1.54 µg/mL) | > 250 | > 250 |  | CN(C/C=C/C#CC(C)(C)C)Cc1cccc2ccccc12 [TERBINAFINE]
7 | 0.5 (≈ 0.462 µg/mL) | 0.1 (≈ 0.0924 µg/mL) | 0.2 (≈ 0.185 µg/mL) | 0.3 (≈ 0.277 µg/mL) |  | C[C@@H]1[C@H](O)[C@@H](C)/C=C/C=C/C=C/C=C/C=C/C=C/C=C/[C@H](O[C@@H]2O[C@H](C)[C@@H](O)[C@H](N)[C@@H]2O)C[C@@H]2O[C@](O)(C[C@@H](O)C[C@@H](O)[C@H](O)CC[C@@H](O)C[C@@H](O)CC(=O)O[C@H]1C)C[C@H](O)[C@H]2C(=O)O [AMPHOTERICIN B]
